Numbers after ± are expanded uncertainties.
Conditions: Capillary rise

CCCC [butane]
Conditions	surface tension liquid-gas [mN/m]
278.15 K	14.57 ± 0.06
283.15 K	13.96 ± 0.06
288.15 K	13.37 ± 0.06
293.15 K	12.79 ± 0.06
298.15 K	12.17 ± 0.06
303.15 K	11.53 ± 0.06
308.15 K	10.94 ± 0.06
313.15 K	10.35 ± 0.06
318.15 K	9.851 ± 0.058
323.15 K	9.286 ± 0.057
328.15 K	8.705 ± 0.057
333.15 K	8.14 ± 0.056
338.15 K	7.593 ± 0.056
343.15 K	7.043 ± 0.055
348.15 K	6.516 ± 0.055
353.15 K	5.991 ± 0.054
358.15 K	5.479 ± 0.054
363.15 K	4.981 ± 0.053
368.15 K	4.483 ± 0.053
373.15 K	4.003 ± 0.053
378.15 K	3.515 ± 0.052
383.15 K	3.049 ± 0.052
388.15 K	2.578 ± 0.051
393.15 K	2.091 ± 0.051
398.15 K	1.679 ± 0.051
403.15 K	1.29 ± 0.05
408.15 K	0.923 ± 0.05
413.15 K	0.583 ± 0.088
417.15 K	0.341 ± 0.088
419.75 K	0.186 ± 0.088
420.35 K	0.157
420.85 K	0.129
421.08 K	0.118
421.48 K	0.1

COC [dimethyl ether]
Conditions	surface tension liquid-gas [mN/m]
214 K	24.45 ± 0.07
220 K	23.51 ± 0.07
225 K	22.69 ± 0.07
230 K	21.87 ± 0.07
235 K	21.15 ± 0.07
240 K	20.43 ± 0.07
245 K	19.7 ± 0.07
250 K	18.92 ± 0.06
255 K	18.15 ± 0.06
260 K	17.39 ± 0.06
265 K	16.62 ± 0.06
270 K	15.93 ± 0.06
275 K	15.19 ± 0.06
280 K	14.47 ± 0.06
285 K	13.73 ± 0.06
290 K	13.02 ± 0.06
295 K	12.28 ± 0.06
300 K	11.57 ± 0.06
305 K	10.85 ± 0.06
315 K	9.497 ± 0.055
320 K	8.813 ± 0.055
325 K	8.137 ± 0.054
330 K	7.476 ± 0.053
335 K	6.814 ± 0.053
340 K	6.164 ± 0.052
345 K	5.528 ± 0.052
350 K	4.899 ± 0.051
355 K	4.307 ± 0.05
360 K	3.707 ± 0.05
365 K	3.142 ± 0.049
370 K	2.575 ± 0.049
375 K	2.042 ± 0.048
380 K	1.516 ± 0.048
385 K	1.054 ± 0.048
390 K	0.614 ± 0.047

— the NIST ThermoML archive (doi:10.1016/j.fluid.2016.01.001)
